Data set [1] relates to Rattus norvegicus. Briefly: Effect on TNBS-induced experimental colitis in rectally dosed Sprague-Dawely rat assessed as colon to body weight ratio relative to control. The data set is classed as functional.
Data set [2] can be described thus: Aqueous solubility of the compound. It counts as physicochemical.
Data set [3] can be described thus: Partition coefficient, log P in n-octanol/phosphate buffer at pH 7.4. It counts as physicochemical.
In data set [4] the test system is Rattus norvegicus. Briefly: Ulcerogenic activity in Wistar rat at 2829 mg/kg, po by cold stress method relative to control. It counts as toxicity, organism-based. The arrangement: dose 2829 mg/kg, route oral. To be noted: in vivo.
Data set [5] deals with Rattus norvegicus. Briefly: Decrease in TNBS-induced colonic damage in po dosed Sprague-Dawely rat. It counts as functional, organism-based.
Data set [6] has as its system Rattus norvegicus. Briefly: Ulcerogenic activity in Wistar rat at 2290 mg/kg, po by cold stress method relative to control. On the set-up: dose 2290 mg/kg, route oral. The conditions noted are these: in vivo. It counts as toxicity, organism-based.
Data set [7] deals with Rattus norvegicus. In words: Ulcerogenic activity in Wistar rat at 3000 mg/kg, po by cold stress method relative to control. It counts as toxicity, organism-based. On the set-up: dose 3000 mg/kg, route oral. To be noted: in vivo.
In data set [8] the test system is Rattus norvegicus. Briefly: Effect on TNBS-induced experimental colitis in po dosed Sprague-Dawely rat assessed as colon to body weight ratio after 5 days relative to control. It counts as functional.

Active and inactive are the calls of the source. The calls are words filed in the database; no cut-off is given here.

Broadly, the solubility is the concentration that dissolves in the medium under given conditions. A high value points to a readily soluble substance. For orientation: logD means the decadic logarithm of the distribution of all forms, ionised or not, between an organic phase and buffer at a given pH.

On to `O=C([O-])c1cc(/N=N/C(Cc2c[nH]c3ccccc23)C(=O)[O-])ccc1O.[Na+].[Na+]` (centres undefined), for which the Ratio with Rattus norvegicus [1] is 0.0073. The compound further had a solubility in data set [2] of 280 mg/mL. Moreover, the logD in data set [3] came to 0.26. The UI in the data set with Rattus norvegicus [4] is 13. Further, the result with Rattus norvegicus [5] was Active.

`Nc1ccc(O)c(C(=O)O)c1` [MESALAMINE]: the UI in the data set with Rattus norvegicus [6] was 59.6. Also, the logD in data set [3] is 0.64.

In the case of `O=C(O)c1cc(/N=N/c2ccc(S(=O)(=O)Nc3ccccn3)cc2)ccc1O` [SULFASALAZINE], the UI with Rattus norvegicus [7] worked out at 9. The Ratio in the data set with Rattus norvegicus [8] is 0.008.

(Values after ChEMBL document CHEMBL1149581, “Colon-specific, mutual azo prodrug of 5-aminosalicylic acid with L-tryptophan: synthesis, kinetic studies and evaluation of its mitigating effect in trinitrobenzenesulfonic acid-induced colitis in rats” (Bioorg Med Chem, 2007).)
